Results taken from US20210024483A1, “HETEROCYLCOALKENYL DERIVATIVES USEFUL AS AGONISTS OF THE GPR120 AND / OR GPR40” (Janssen Pharmaceutica NV, priority 2018, published 2021).

Assays:
[1] = biological target: T1, Human GPR120 short form (short splice variant, NM_001195755.1) (Homo sapiens, UniProt Q5NUL3); assay: Human GPR120 Calcium Flux Assay; type: cell-based; conditions: HEK-293 cells, 4200 cells/well, read-out: Human GPR120 Calcium Flux Assay Procedure B EC50
T1 construct: expressed in transfected cells; host or cells: HEK293
T1 sequence (Q5NUL3 1-361): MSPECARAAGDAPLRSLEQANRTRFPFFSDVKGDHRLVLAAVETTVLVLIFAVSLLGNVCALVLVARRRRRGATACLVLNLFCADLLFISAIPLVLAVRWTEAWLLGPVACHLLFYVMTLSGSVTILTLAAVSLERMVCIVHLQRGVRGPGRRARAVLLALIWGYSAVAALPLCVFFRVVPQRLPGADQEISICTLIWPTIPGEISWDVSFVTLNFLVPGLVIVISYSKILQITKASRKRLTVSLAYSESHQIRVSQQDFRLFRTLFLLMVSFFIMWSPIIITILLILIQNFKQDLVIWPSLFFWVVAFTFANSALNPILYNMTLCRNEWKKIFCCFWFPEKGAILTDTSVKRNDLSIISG
Description: In Vitro Assay: Human GPR120 in Calcium Flux Assay
This in vitro assay serves to assess test compound agonist activity against the short splice variant (SVS with Accession number NM_001195755.1 confirmed by sequencing data) of the GPR120 receptor. The Human Short splice variant #2 (NM_001195755.1) is missing an in-frame coding exon compared to variant 1 (the Human Long splice variant NM_181745.3), resulting in a shorter isoform (GPR120-S) lacking a 16 aa protein segment compared to isoform GPR120-L. The assay platform utilizes HEK-293 cells stably transfected to express the Human GPR120 short form. These cells are first loaded with the Ca^+2 sensitive dye, Fluo-4 NW. Upon stimulation, intracellular released Ca^+2 can bind to the dye and alter its fluorescence intensity. This increase in fluorescence signal, and thus the flux in intracellular [Ca^2+], is detected and quantitated by fluorescence imaging using a FLIPR reader. The effect of the agonist is measured as a function of concentration and used to calculate an EC50 based upon a response curve. […]
In this procedure 4200 cells/well were employed.
A Human GPR120 clone (Genbank accession number NM_001195755.1) was placed into the pcDNA3.1 mammalian expression vector carrying the neomycin resistance gene. A stable mammalian cell was generated by placing the above clone into a HEK293 background. Clonal cells responding to long chain fatty acids had expression levels of GPR120 confirmed by RT-qPCR. Human HEK-GPR120 cells were cultured in Dulbecco's Modified Eagle's Medium (DMEM)/F12 medium supplemented with 10% fetal bovine serum (FBS), 1% L-Glutamine and 1% penicillin/streptomycin and 0.5 mg/ml G-418. Cells were split 2 times a week to keep the cells in the log-phase growth.
In preparation for the assay, HEK cells stably transfected with Human GPR120 (2.5K cells per well in 25 uL growth medium) were seeded into 384-well plates and then incubated overnight (37° C., 5% CO2). The next day, the media was changed to 20 μL assay buffer and the cell starved for 1 h at 37° C. The dye loading solution (2× dye) was prepared using 10 mL assay buffer, 100 μL of 250 mM probenecid, 1 bottle of Component A, and 20 μl of dye in DMSO. Twenty μL of the 2× dye loading buffer was then added to each well. The plates were incubated at 37° C. for 30 min, then at room temperature for an additional 15 minutes, before performing the assay on FLIPR.
The assay was performed on a FLIPR plate reader using the following parameters. Baseline was read for 10 seconds at 1 sec intervals. The program was set to transfer 10 μL of ligand from compound plate to cell plate after baseline reading. Aspiration was executed at: 10 μL/sec speed, 4.6 μL height; Dispensing was executed at: 30 μL/sec speed, 45 μL height. After compound addition, each well was read for 300 sec, with measurements collected at 1 sec intervals.
The kinetic data from the FLIPR was based upon a 5 minute window for data collection. The fluorescence of each sample well was used for individual calculations of a normalized RFU value, which was defined as maximum response minus the minimum response. The normalized fluorescence reading (RFU) was calculated as follows:
The data were fitted to a sigmoidal dose-response curve with a variable Hill slope (<2) using nonlinear regression with GraphPad Prism 5.0 to calculate the EC50 values. The Fitting Equation was: Y=Bottom+(Top−Bottom)/(1+10^((Log EC50−X)*HillSlope)), where X is the log of the concentration and Y is the response.

GPR40 = GPR40 (UniProt O14842); assay: GPR40 Calcium Flux Assay; type: cell-based; conditions: transfected HEK293 cells stably expressing human or rat GPR40; species not given
Description: Biological Example 3: In Vitro Assay
Compounds were tested in a calcium flux assay using transfected HEK293 cells stably expressing either human GPR40 or rat GPR40. Human GPR40 expressing cells were cultured in DMEM-High Glucose media supplemented with 10% fetal bovine serum, 1×L-Glutamine, 1× Penicillin/Streptomycin and 500 μg/mL G418. Rat GPR40 expressing cells were cultured in DMEM-High Glucose media supplemented with 10% fetal bovine serum and 1 μg/mL puromycin. Cells were plated into poly-D-lysine coated 384-well plates and cultured overnight in a 37° C. humidified tissue culture incubator under 5% CO2/90% O2 atmosphere.
On the day of the experiment, the culture media was replaced with assay buffer (HBSS, 20 mM HEPES, 0.1% BSA) and the cells incubated at 37° C. for 1 h. Calcium-sensitive fluorescent dye (Fluo 8 No-Wash Calcium Dye, ABD Bioquest) was then added and the cells incubated for another 30 min at 37° C. followed by 15 min at room temperature while protected from the light. The cell plate and a plate of diluted compounds of Formula (I) were loaded into a fluorescent plate reader that added compounds onto the cells while measuring the fluorescence intensity of each well. The plate reader recorded fluorescence intensity at 1 second intervals for 8 min and provided the data for analysis in an Excel format. EC50 values were calculated using Prism (GraphPad) software.

Row | SMILES | EC50 [1] [nM] | EC50 (GPR40) [nM]
1 | CCCCC1=C(COc2ccc(CCC(=O)O)c(C(F)(F)F)c2)COCC1 [compound 707] | 829 | 326
2 | O=C(O)CCc1ccc(OCC2=C(Cc3ccc(Cl)cc3)CCOC2)cc1Cl [compound 709] | > 5000 | 2300
3 | O=C(O)CCc1ccc(OCC2=C(Cc3ccccc3)CCOC2)cc1Cl [compound 713] | > 5000 | 703
4 | O=C(O)CCc1cc(F)c(OCC2=C(Cc3ccccc3)CCOC2)c(F)c1 [compound 714] | 1930 | > 10000
5 | CCC1=C(COc2ccc(CCC(=O)O)c(C(F)(F)F)c2)COCC1 [compound 716] | 1840 | 571
6 | CC(C)CC1=C(COc2ccc(CCC(=O)O)c(C(F)(F)F)c2)COCC1 [compound 717] | 1300 | 133
7 | O=C(O)CCc1ccc(OCC2=C(CC3CCCCC3)CCOC2)cc1C(F)(F)F [compound 718] | > 5000 | 1430
8 | CCCCCCC1=C(COc2ccc(CCC(=O)O)c(C(F)(F)F)c2)COCC1 [compound 719] | > 5000 | 1020
9 | C=C(C1=C(COc2ccc(CCC(=O)O)c(Cl)c2)COCC1)c1ccccc1 [compound 720] | > 5000 | 339
10 | O=C(O)CCc1cc(F)c(OCC2=C(Cc3ccc(Cl)cc3)CCOC2)c(F)c1 [compound 721] | 2420 | > 10000
11 | CC(C)CCC1=C(COc2ccc(CCC(=O)O)c(C(F)(F)F)c2)COCC1 [compound 722] | 1190 | 973
12 | C=C(C1=C(COc2ccc(CCC(=O)O)cc2F)COCC1)c1ccccc1 [compound 723] | > 5000 | > 10000
13 | Cc1c(CCC(=O)O)ccc(OCC2=C(C3CCC3)CCOC2)c1C [compound 724] | 275 | > 10000
14 | O=C(O)CCc1ccc(OCC2=C(C3CCC3)CCOC2)cc1Cl [compound 725] | 2340 | 588
15 | O=C(O)CCc1ccc(OCC2=C(C3CCCC3)CCOC2)cc1Cl [compound 727] | 1600 | 386
16 | O=C(O)CCc1ccc(OCC2=C(C3CCCCC3)CCOC2)cc1C(F)(F)F [compound 729] | 2680 | 847
17 | O=C(O)CCc1ccc(OCC2=C(C3CCCC3)CCOC2)cc1C(F)(F)F [compound 731] | 818 | 93
18 | CC(C)CC1=C(COc2ccc(CCC(=O)O)c(Cl)c2)COCC1 [compound 732] | > 5000 | 1060
19 | CC(C)CC1=C(COc2c(F)cc(CCC(=O)O)cc2F)COCC1 [compound 733] | 1810 | > 10000
20 | CCC(C)C1=C(COc2ccc(CCC(=O)O)c(C(F)(F)F)c2)COCC1 (centres unmarked) [compound 734] | 10100 | 744
21 | CC(C)C1=C(COc2ccc(CCC(=O)O)c(C(F)(F)F)c2)COCC1 [compound 735] | 2190 | 492
22 | O=C(O)CCc1cc(F)c(OCC2=C(C3CCCC3)CCOC2)c(F)c1 [compound 736] | 615 | > 10000
23 | O=C(O)CCc1ccc(OCC2=C(C3CCCC3)CCOC2)cc1 [compound 738] | 927 | 2680
24 | O=C(O)CCc1ccc(OCC2=C(C3C=CCC3)CCOC2)cc1 (centres unmarked) [compound 740] | 1140 | 2080
25 | O=C(O)CCc1ccc(OCC2=C(C3CCCC3)COCC2)cc1 [compound 764] | 455 | 1440
26 | Cc1ccc(C2=C(COc3ccc(CCC(=O)O)cc3)CCOC2)cc1F [compound 769] | 1090 | > 10000
27 | O=C(O)CCc1ccc(OCC2=C(C3CCCC3)CCOCC2)cc1 [compound 780] | 1310 | 2660
28 | Cc1ccc(C2=C(COc3ccc(CCC(=O)O)cc3)CCOCC2)cc1F [compound 783] | 1360 | 7880
